Laboratory results reported in patent US7319109B2, “Farnesoid X receptor agonists” (Smith Kline Beecham Corporation, priority 2002, dated 2008).

Target: T1, Human FXRα Ligand Binding Domain (FXRα LBD) (Homo sapiens, UniProt Q96RI1)
T1 construct: polyhistidine (N); made in house; host or cells: E. coli BL21 (DE3), pRSET-A vector
T1 sequence (Q96RI1 222-472 isoform Q96RI1-2): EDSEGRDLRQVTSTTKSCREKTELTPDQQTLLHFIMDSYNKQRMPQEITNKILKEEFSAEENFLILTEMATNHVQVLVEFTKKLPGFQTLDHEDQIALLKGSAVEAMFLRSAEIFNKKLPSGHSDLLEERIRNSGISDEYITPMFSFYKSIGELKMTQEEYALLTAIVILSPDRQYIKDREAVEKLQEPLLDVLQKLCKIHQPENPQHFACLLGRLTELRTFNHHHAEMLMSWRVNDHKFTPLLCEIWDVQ
Assay: FXR Affinity Binding Assay: ligand mediated cofactor peptide (SRC-1 LCD2, 676-700) interaction, time resolved fluorescence
Details: FXRα LBD-APC / europium labeled SRC-1 peptide, TRF signal, at least 2 hours at room temperature; read-out: Activity (pEC50) (converted)
Description: Determination of a ligand mediated cofactor peptide interaction to quantify ligand binding to the nuclear receptor Farnasoid X Receptor (FXR). The method measures the ability of putative ligands to modulate the interaction between the purified bacterial expressed FXRα (LBD) and a synthetic biotinylated peptide based on residues 676-700 of SRC-1(LCD2, 676-700). […] Detection of the associated complex is measured by time resolved fluorescence (TRF). The purified LBD of FXR is labeled with biotin then mixed with stoichiometric amounts of APC labeled streptavidin (Molecular Probes). The biotinylated peptide is then mixed with a ½ stoichiometric amount of europium labeled streptavidin (Wallac Inc). Each is then blocked with a 5 fold excess of biotin and allowed to equilibrate for 15 min. Equimolar amounts of receptor and peptide are mixed together and allowed to equilibrate for at least 30 min prior to the addition to either a variable or constant concentrations of the sample for which the affinity is to be determined. After equilibration, the time-resolved fluorescent signal is quantitated using a fluorescent plate reader. The affinity of the test compound is estimated from a plot of fluorescence versus concentration of test compound added.
Ligands that promote the complex formation induce a concentration-dependent increase in time-resolved fluorescent signal.
Human FXRα Ligand Binding Domain (FXRα LBD) was expressed in E.coli strain BL21 (DE3) as an amino-terminal polyhistidine tagged fusion protein. Expression was under the control of an IPTG inducible T7 promoter. DNA encoding this recombinant protein was subcloned into the pRSET-A expression vector (Invitrogen). The coding sequence of Human FXRα LBD was derived from Genbank accession number U 68233 (amino acids 222 to 472).
Routinely, 30-40 g cell paste (equivalent to 2-3 liters of the fermentation batch) was resuspended in 200-250 mL TBS, pH 7.2 (25mM Tris, 150 mM NaCl). Cells were lysed by passing 3 times through a French Press and cell debris was removed by centrifugation (30 minutes, 20,000 g, 4° C.). The cleared supernatant was filtered through course pre-filters, and TBS, pH 7.2, containing 500 mM imidazole was added to obtain a final imidazole concentration of 50 mM. This lysate was loaded onto a column (6×8 cm) packed with Sepharose [Ni^++ charged]Chelation resin (Pharmacia) and pre-equilibrated with TBS pH 7.21 50 mM imidazole. After washing to baseline absorbance with equilibration buffer, the column was washed with one column volume of TBS pH 7.2 containing 90 mM imidazole. FXRαLBD was eluted directly with 365 mM imidazole. Column fractions were pooled and dialyzed against TBS, pH 7.2, containing 0.5 mM EDTA and 5 mM DTT. The dialyzed protein sample was concentrated using Centri-prep 10 K (Amicon) and subjected to size exclusion, using a column (3×90 cm) packed with Sepharose S-75 resin (Pharmacia) pre-equilibrated with TBS, pH 7.2, containing 0.5 mM EDTA and 5 mM DTT.
Purified FXRα LBD was desalted/buffer exchanged using PD-10 gel filtration columns into PBS [100 mM NaPhosphate, pH 7.2, 150 mM NaCl]. FXRα LBD was diluted to approximately 10 μM in PBS and five-fold molar excess of NHS-LC-Biotin (Pierce) was added in a minimal volume of PBS. This solution was incubated with gentle mixing for 30 minutes at room temperature. The biotinylation modification reaction was stopped by the addition of 2000× molar excess of Tris-HCl, pH 8. The modified FXRα LBD was dialyzed against 4 buffer changes, each of at least 50 volumes, PBS containing 5 mM DTT, 2 mM EDTA and 2% sucrose.

Row | Structure (SMILES) | EC50 [nM]
1 | COC(=O)c1ccc(C(=O)Nc2ccc(OCc3c(-c4c(Cl)cccc4Cl)noc3C(C)C)cc2Cl)cc1 [Example 25, Methyl 4-[(2-chloro-4-{[3-(2,6-dichlorophenyl)-5-isopropyl-4-isoxazolyl]methoxy}anilino)carbonyl]benzoate] | 102 to 1000
2 | Cc1cc(OCc2c(-c3c(Cl)cccc3Cl)noc2C(C)C)ccc1NC(=O)c1cccc(C(=O)O)c1 [Example 26, 3-[(4-{[3-(2,6-Dichlorophenyl)-5-isopropyl-4-isoxazolyl]methoxy}-2-methylanilino)carbonyl]benzoic acid] | 1020 to 10000
3 | Cc1cc(OCc2c(-c3c(Cl)cccc3Cl)noc2C(C)C)ccc1NC(=O)c1ccc(C(=O)O)cc1 [Example 27, 4-[(4-{[3-(2,6-Dichlorophenyl)-5-isopropyl-4-isoxazolyl]methoxy}-2-methylanilino)carbonyl]benzoic acid] | 102 to 1000
4 | CC(C)c1onc(-c2c(Cl)cccc2Cl)c1COc1ccc(NC(=O)c2cccc(C(=O)O)c2)c(Cl)c1 [Example 28, 3-[(2-Chloro-4-{[3-(2,6-dichlorophenyl)-5-isopropyl-4-isoxazolyl]methoxy}anilino)carbonyl]benzoic acid] | 102 to 1000
5 | Cc1cc(OCc2c(-c3c(Cl)cccc3Cl)noc2C(C)C)ccc1N(C)C(=O)c1cccc(C(=O)O)c1 [Example 29, 3-[(4-{[3-(2,6-Dichlorophenyl)-5-isopropyl-4-isoxazolyl]methoxy}-2-dimethylanilino)carbonyl]benzoic acid] | 102 to 1000
6 | CC(C)c1onc(-c2c(Cl)cccc2Cl)c1COc1ccc(N(C)C(=O)c2cccc(C(=O)O)c2)c(Cl)c1 [Example 30, 3-[(2-Chloro-4-{[3-(2,6-dichlorophenyl)-5-isopropyl-4-isoxazolyl]methoxy}methylanilino)carbonyl]benzoic acid] | 102 to 1000
7 | CC(C)c1onc(-c2c(Cl)cccc2Cl)c1COc1ccc(N(C)C(=O)c2ccc(C(=O)O)cc2)c(Cl)c1 [Example 31, 4-[(2-Chloro-4-{[3-(2,6-dichlorophenyl)-5-isopropyl-4-isoxazolyl]methoxy}methylanilino)carbonyl]benzoic acid] | 102 to 1000
8 | Cc1cc(OCc2c(-c3ccccc3OC(F)(F)F)noc2C(C)C)ccc1N(C)C(=O)c1cccc(C(=O)O)c1 [Example 32, 3-{[4-({5-Isopropyl-3-[2-(trifluoromethoxy)phenyl]-4-isoxazolyl}methoxy)-2-dimethylanilino]carbonyl}benzoic acid] | 102 to 1000
9 | Cc1cc(OCc2c(-c3ccccc3OC(F)(F)F)noc2C(C)C)ccc1NC(=O)c1cccc(C(=O)O)c1 [Example 33, 3-{[4-({5-Isopropyl-3-[2-(trifluoromethoxy)phenyl]-4-isoxazolyl}methoxy)-2-methylanilino]carbonyl}benzoic acid] | 102 to 1000
10 | CC(C)c1onc(-c2ccccc2OC(F)(F)F)c1COc1ccc(N(C)C(=O)c2cccc(C(=O)O)c2)c(Cl)c1 [Example 34, 3-{[2-Chloro-4-({5-isopropyl-3-[2-(trifluoromethoxy)phenyl]-4-isoxazolyl}methoxy)methylanilino]carbonyl}benzoic acid] | 102 to 1000
11 | COC(=O)c1cccc(S(=O)(=O)N(C)c2ccc(OCc3c(-c4c(Cl)cccc4Cl)noc3C(C)C)cc2C)c1 [Example 35, Methyl 3-{[(4-{[3-(2,6-dichlorophenyl)-5-isopropylisoxazol-4-yl]methoxy}-2-methylphenyl)(methyl)amino]sulfonyl}benzoate] | 102 to 1000

Results, then the molecule that gave them:

Row | EC50 [nM] | Structure (SMILES)
12 | 102 to 1000 | COC(=O)c1cccc(S(=O)(=O)Nc2ccc(OCc3c(-c4c(Cl)cccc4Cl)noc3C(C)C)cc2Cl)c1 [Example 36, Methyl 3-{[(2-chloro-4-{[3-(2,6-dichlorophenyl)-5-isopropylisoxazol-4-yl]methoxy}-phenyl)amino]sulfonyl}benzoate]
13 | 102 to 1000 | COC(=O)c1cccc(S(=O)(=O)Nc2ccc(OCc3c(-c4c(Cl)cccc4Cl)noc3C(C)C)cc2C)c1 [Example 37, Methyl 3-{[1(4-{[3-(2,6-dichlorophenyl)-5-isopropylisoxazol-4-yl]methoxy}-2-methylphenyl)amino]sulfonyl}benzoate]
14 | 102 to 1000 | COC(=O)c1cccc(S(=O)(=O)Nc2ccc(OCc3c(-c4c(Cl)cccc4Cl)noc3C(C)C)cc2)c1 [Example 38, Methyl 3-{[(4-{[3-(2,6-dichlorophenyl)-5-isopropylisoxazol-4yl]methoxy}phenyl)amino]-sulfonyl}benzoate]
15 | 102 to 1000 | Cc1cc(OCc2c(-c3c(Cl)cccc3Cl)noc2C(C)C)ccc1NS(=O)(=O)c1cccc(C(=O)O)c1 [Example 39, 3-{[(4-{[3-(2,6-Dichlorophenyl)-5-isopropylisoxazol-4-yl]methoxy}-2-methylphenyl)-amino]sulfonyl}benzoic acid]
16 | 1020 to 10000 | CC(C)c1onc(-c2c(Cl)cccc2Cl)c1COc1ccc(NS(=O)(=O)c2cccc(C(=O)O)c2)cc1 [Example 40, 3-{[(4-{[3-(2,6-Dichlorophenyl)-5-isopropylisoxazol-4-yl]methoxy}phenyl)amino]-sulfonyl}benzoic acid]
17 | 102 to 1000 | COC(=O)c1cccc(S(=O)(=O)N(C)c2ccc(OCc3c(-c4c(Cl)cccc4Cl)noc3C(C)C)cc2Cl)c1 [Example 41, Methyl 3-{[(2-chloro-4-{[3-(2,6-dichlorophenyl)-5-isopropylisoxazol-4-yl]methoxy}-phenyl)(methyl)amino]sulfonyl}benzoate]
18 | 102 to 1000 | COC(=O)c1cccc(S(=O)(=O)N(C)c2ccc(OCc3c(-c4c(Cl)cccc4Cl)noc3C(C)C)cc2)c1 [Example 42, Methyl 3-{[(4-{[3-(2,6-dichlorophenyl)-5-isopropylisoxazol-4-yl]methoxy}phenyl)-(methyl)amino]sulfonyl}benzoate]
19 | 1020 to 10000 | CCN(c1ccc(OCc2c(-c3c(Cl)cccc3Cl)noc2C(C)C)cc1Cl)S(=O)(=O)c1cccc(C(=O)OC)c1 [Example 43, Methyl 3-{[(2-chloro-4-{[3-(2,6-dichlorophenyl)-5-isopropylisoxazol-4-yl]methoxy}-phenyl)(ethyl)amino]sulfonyl}benzoate]
20 | 102 to 1000 | CCN(c1ccc(OCc2c(-c3c(Cl)cccc3Cl)noc2C(C)C)cc1C)S(=O)(=O)c1cccc(C(=O)OC)c1 [Example 44, Methyl 3-{[(4-{[3-(2,6-dichlorophenyl)-5-isopropylisoxazol-4-yl]methoxy}-2-methyl-phenyl)(ethyl)amino]sulfonyl}benzoate]
21 | 1020 to 10000 | CCN(c1ccc(OCc2c(-c3c(Cl)cccc3Cl)noc2C(C)C)cc1)S(=O)(=O)c1cccc(C(=O)OC)c1 [Example 45, Methyl 3-{[(4-{[3-(2,6-dichlorophenyl)-5-isopropylisoxazol-4-yl]methoxy}phenyl)(ethyl)-amino]sulfonyl}benzoate]
22 | 102 to 1000 | CC(C)c1onc(-c2c(Cl)cccc2Cl)c1COc1ccc(NS(=O)(=O)c2cccc(C(=O)O)c2)c(Cl)c1 [Example 46, 3-{[(2-Chloro-4-{[3-(2,6-dichlorophenyl)-5-isopropylisoxazol-4-yl]methoxy}phenyl)amino]sulfonyl}benzoic acid]
23 | < 100 | CC(C)c1onc(-c2c(Cl)cccc2Cl)c1COc1ccc(N(C)S(=O)(=O)c2cccc(C(=O)O)c2)c(Cl)c1 [Example 47, 3-{[(2-Chloro-4-{[3-(2,6-dichlorophenyl)-5-isopropylisoxazol-4-yl]methoxy}phenyl)-(methyl)amino]sulfonyl}benzoic acid]
